pIC50: −log10 of the molar value.
What was measured:
Type in all cases: biochemical
EGFR = EGFR (Homo sapiens, UniProt P00533); experiment: EGFR kinase inhibition
BLK = BLK (Homo sapiens, UniProt P51451); experiment: BLK kinase inhibition
Method: (§1) Btk kinase activity was determined using a time-resolved fluorescence resonance energy transfer (TR-FRET) methodology. Measurements were performed in a reaction volume of 50 μL using 96-well assay plates. […] The reaction was quenched by the addition of 1.2 equivalents of EDTA (relative to divalent cation) in 25 μL of 1× Lance buffer (Perkin-Elmer). Streptavidin-APC (Perkin-Elmer) and Eu-labeled p-Tyr100 antibody (Perkin-Elmer) in 1× Lance buffer were added in a 25 μL volume to give final concentrations of 100 nM and 2.5 nM, respectively, and the mixture was allowed to incubate for one hour. The TR-FRET signal was measured on a multimode plate reader with an excitation wavelength (λEx) of 330 nm and detection wavelengths (λEm) of 615 and 665 nm. Activity was determined by the ratio of the fluorescence at 665 nm to that at 615 nm. For each compound, enzyme activity was measured at various concentrations of compound. Negative control reactions were performed in the absence of inhibitor in replicates of six, and two no-enzyme controls were used to determine baseline fluorescence levels Inhibition constants, Ki(app), were obtained using the program BatchKi (Kuzmic et al. (2000), Anal. Biochem. 286:45-50). IC50s were obtained according to the equation: IC50={Ki(app)/(1+[ATP]/Km^ATP)}+[E]total/2; For all kinases, [ATP]=Km^ATP, [Btk]total=0.5 nM and [Lck]total=6 nM.

Tec = target: T1, Tec (Homo sapiens, UniProt P42680); experiment: Tec kinase inhibition
T1 sequence (P42680 1-631): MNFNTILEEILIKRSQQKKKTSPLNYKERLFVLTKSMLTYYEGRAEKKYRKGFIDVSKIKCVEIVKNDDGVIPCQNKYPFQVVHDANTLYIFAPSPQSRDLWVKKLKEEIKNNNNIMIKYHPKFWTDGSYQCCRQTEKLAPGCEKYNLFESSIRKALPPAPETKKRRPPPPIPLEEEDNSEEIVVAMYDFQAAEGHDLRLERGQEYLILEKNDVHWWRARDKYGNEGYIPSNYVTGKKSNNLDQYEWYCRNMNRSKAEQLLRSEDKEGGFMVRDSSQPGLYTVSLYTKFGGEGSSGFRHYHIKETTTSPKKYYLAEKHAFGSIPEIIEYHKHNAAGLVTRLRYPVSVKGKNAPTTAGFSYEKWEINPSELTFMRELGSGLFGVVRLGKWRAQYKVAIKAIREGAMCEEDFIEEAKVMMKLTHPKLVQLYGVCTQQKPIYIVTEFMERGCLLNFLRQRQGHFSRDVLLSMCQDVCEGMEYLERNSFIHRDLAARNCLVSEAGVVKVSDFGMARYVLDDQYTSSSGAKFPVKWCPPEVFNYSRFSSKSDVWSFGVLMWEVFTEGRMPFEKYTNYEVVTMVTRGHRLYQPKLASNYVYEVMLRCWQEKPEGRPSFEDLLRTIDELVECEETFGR
Method: as §1

RET = RET (Homo sapiens, UniProt P07949); experiment: RET kinase inhibition
Lck = Lck (Homo sapiens, UniProt P06239); experiment: Lck kinase inhibition
How it was run: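 TR-FRET kinase assay; reactions were quenched with EDTA, then streptavidin-APC (100 nM final) and Eu-labeled anti-pTyr antibody (2.5 nM final) were added for 1 h. Activity was taken as the 665/615 nm emission ratio. Ki(app) was fitted from compound titrations and converted to IC50 with ATP at Km.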

Lyn = Lyn (Homo sapiens, UniProt P07948); experiment: Lyn kinase inhibition
Btk = target: T2, Btk (Homo sapiens, UniProt Q06187); experiment: Btk in vitro inhibitory activity (one of Methods A, B, C); details: determined in one of three in vitro assays (Examples 125-127)
T2 construct: purified from insect cells as a full-length construct containing a N-terminal 6×-His tag; 6xHis (N); host or cells: insect cells (baculovirus Sf21 in Method B)
How it was run: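 Values come from one of three formats: TR-FRET (665/615 nm ratio; Ki(app) converted to IC50 with [ATP]=Km, 0.5 nM Btk), mobility-shift product/sum ratio over 12 concentrations with 4-parameter fit, or radiometric filter binding using His-tagged full-length human Btk (8 nM), 0.2 mg/mL poly-Glu-Tyr, 1 μM ATP, 120 min RT.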

BMX = target: T3, BMX (Homo sapiens, UniProt P51813); experiment: BMX kinase inhibition
T3 sequence (P51813 1-675): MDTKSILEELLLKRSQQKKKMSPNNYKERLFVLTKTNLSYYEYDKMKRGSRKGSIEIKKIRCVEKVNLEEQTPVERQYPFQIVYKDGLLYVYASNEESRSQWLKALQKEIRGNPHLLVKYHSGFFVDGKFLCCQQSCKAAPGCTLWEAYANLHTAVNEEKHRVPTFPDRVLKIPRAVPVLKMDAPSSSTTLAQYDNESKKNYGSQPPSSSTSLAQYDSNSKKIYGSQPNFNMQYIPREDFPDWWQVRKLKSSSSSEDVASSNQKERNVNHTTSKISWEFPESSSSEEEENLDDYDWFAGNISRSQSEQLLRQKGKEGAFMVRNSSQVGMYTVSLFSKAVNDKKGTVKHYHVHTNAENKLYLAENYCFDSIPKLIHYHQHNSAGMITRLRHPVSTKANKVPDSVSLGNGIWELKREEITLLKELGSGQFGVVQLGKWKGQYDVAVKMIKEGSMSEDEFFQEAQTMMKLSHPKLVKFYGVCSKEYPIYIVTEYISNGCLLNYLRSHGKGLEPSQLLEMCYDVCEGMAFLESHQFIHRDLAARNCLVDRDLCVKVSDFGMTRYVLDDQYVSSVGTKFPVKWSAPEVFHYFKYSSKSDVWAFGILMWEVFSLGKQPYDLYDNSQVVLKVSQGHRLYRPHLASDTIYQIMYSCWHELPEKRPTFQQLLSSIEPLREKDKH

CSK = CSK (Homo sapiens, UniProt P41240); experiment: CSK kinase inhibition
C-src = C-src (Homo sapiens, UniProt P12931); experiment: C-src kinase inhibition
C-src, sequence (P12931 whole entry): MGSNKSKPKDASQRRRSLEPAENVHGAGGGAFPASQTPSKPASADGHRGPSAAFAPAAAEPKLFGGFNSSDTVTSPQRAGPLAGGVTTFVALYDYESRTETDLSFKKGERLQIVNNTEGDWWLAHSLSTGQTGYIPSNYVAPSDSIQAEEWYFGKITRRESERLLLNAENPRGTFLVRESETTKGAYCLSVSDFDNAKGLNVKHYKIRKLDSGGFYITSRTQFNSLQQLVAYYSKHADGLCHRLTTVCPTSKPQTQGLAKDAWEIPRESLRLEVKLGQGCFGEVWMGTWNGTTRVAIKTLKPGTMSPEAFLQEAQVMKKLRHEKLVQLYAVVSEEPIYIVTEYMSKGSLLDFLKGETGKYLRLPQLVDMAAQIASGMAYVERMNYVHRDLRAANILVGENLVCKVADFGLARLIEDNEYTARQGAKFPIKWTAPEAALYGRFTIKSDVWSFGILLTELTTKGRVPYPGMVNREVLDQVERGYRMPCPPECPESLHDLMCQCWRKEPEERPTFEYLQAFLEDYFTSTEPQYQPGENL

Lyn, sequence (P07948 whole entry): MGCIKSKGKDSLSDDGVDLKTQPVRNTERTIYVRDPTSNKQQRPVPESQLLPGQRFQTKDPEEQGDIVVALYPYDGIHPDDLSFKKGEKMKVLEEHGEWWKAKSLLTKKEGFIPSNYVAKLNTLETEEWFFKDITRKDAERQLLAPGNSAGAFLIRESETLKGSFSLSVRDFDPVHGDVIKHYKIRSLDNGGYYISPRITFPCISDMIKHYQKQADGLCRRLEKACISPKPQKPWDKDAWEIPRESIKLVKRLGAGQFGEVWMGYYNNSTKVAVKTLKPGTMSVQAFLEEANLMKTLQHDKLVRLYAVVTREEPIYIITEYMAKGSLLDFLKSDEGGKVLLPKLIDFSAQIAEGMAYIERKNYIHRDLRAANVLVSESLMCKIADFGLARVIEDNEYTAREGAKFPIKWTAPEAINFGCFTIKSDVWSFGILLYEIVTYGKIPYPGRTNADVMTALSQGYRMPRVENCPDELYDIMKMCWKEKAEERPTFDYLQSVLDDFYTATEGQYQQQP
Lck, sequence (P06239 whole entry): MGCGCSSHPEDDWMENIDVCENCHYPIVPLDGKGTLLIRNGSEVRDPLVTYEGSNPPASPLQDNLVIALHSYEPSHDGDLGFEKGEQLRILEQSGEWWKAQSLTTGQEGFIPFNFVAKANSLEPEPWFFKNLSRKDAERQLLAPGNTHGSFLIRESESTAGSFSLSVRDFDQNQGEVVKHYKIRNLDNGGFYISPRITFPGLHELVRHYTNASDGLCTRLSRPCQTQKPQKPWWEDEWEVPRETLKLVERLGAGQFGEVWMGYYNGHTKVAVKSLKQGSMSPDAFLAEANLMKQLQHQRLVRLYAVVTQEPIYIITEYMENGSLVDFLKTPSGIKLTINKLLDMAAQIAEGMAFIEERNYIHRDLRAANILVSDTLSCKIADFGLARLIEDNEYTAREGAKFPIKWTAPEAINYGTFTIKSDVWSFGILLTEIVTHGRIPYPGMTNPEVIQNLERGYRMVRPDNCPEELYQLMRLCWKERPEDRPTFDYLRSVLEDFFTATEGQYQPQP
T2 sequence (Q06187 whole entry): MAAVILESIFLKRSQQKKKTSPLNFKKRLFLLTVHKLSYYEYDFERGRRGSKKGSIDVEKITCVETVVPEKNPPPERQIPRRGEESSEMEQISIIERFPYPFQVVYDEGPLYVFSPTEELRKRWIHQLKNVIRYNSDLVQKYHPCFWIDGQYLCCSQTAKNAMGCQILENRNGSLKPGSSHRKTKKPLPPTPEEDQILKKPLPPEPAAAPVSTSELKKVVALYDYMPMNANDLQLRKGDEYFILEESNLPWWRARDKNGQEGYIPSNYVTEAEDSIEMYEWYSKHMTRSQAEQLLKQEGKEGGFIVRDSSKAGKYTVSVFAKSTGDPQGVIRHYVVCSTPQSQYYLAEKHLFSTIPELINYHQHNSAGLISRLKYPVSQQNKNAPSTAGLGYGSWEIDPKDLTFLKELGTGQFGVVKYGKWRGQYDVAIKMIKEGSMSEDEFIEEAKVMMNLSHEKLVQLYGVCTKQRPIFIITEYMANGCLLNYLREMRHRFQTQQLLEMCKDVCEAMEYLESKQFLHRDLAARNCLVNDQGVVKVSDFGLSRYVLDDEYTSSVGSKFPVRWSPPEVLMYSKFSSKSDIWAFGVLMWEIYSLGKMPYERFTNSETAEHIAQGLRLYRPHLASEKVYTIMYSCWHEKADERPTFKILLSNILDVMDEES
EGFR, sequence (P00533 25-1210): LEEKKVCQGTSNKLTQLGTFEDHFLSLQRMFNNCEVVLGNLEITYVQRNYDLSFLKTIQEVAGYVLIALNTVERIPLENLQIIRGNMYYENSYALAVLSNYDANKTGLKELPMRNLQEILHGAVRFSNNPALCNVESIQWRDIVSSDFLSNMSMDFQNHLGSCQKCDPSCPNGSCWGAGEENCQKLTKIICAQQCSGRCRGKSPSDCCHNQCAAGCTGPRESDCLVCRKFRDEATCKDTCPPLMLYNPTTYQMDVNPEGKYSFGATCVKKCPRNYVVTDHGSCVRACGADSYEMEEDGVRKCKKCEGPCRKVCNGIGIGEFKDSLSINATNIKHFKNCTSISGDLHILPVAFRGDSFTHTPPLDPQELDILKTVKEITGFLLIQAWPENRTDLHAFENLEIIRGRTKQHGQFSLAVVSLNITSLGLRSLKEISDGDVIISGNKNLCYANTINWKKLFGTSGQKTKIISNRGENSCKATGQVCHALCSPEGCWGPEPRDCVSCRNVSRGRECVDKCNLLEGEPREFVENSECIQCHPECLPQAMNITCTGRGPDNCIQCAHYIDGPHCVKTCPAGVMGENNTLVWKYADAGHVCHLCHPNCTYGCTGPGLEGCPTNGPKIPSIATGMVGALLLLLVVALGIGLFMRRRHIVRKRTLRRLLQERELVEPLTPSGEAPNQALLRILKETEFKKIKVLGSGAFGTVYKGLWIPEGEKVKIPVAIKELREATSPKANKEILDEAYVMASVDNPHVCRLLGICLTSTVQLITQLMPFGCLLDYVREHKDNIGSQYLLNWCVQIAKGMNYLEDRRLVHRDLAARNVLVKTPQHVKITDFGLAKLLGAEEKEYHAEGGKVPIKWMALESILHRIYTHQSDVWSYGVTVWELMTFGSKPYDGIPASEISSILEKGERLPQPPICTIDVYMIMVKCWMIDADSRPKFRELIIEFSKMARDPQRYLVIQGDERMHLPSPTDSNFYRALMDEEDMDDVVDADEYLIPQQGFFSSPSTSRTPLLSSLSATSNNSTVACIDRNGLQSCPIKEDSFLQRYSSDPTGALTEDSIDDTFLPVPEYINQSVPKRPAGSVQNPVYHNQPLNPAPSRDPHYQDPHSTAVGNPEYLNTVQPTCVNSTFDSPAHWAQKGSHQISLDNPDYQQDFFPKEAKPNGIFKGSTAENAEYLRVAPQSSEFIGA
BLK, sequence (P51451 whole entry): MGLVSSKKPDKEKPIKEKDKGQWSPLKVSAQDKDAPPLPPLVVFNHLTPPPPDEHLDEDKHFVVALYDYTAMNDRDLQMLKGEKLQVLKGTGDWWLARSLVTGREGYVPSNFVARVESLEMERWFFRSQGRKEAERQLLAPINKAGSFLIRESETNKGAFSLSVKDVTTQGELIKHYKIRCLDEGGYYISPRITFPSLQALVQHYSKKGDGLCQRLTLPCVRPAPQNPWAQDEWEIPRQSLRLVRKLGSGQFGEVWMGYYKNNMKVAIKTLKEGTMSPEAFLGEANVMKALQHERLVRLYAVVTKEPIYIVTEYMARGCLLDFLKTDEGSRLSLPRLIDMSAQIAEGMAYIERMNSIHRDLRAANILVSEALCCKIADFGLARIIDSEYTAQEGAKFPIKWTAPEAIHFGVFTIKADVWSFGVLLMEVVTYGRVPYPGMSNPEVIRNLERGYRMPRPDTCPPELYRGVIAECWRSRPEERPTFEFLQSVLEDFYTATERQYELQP
RET, sequence (P07949 29-1114): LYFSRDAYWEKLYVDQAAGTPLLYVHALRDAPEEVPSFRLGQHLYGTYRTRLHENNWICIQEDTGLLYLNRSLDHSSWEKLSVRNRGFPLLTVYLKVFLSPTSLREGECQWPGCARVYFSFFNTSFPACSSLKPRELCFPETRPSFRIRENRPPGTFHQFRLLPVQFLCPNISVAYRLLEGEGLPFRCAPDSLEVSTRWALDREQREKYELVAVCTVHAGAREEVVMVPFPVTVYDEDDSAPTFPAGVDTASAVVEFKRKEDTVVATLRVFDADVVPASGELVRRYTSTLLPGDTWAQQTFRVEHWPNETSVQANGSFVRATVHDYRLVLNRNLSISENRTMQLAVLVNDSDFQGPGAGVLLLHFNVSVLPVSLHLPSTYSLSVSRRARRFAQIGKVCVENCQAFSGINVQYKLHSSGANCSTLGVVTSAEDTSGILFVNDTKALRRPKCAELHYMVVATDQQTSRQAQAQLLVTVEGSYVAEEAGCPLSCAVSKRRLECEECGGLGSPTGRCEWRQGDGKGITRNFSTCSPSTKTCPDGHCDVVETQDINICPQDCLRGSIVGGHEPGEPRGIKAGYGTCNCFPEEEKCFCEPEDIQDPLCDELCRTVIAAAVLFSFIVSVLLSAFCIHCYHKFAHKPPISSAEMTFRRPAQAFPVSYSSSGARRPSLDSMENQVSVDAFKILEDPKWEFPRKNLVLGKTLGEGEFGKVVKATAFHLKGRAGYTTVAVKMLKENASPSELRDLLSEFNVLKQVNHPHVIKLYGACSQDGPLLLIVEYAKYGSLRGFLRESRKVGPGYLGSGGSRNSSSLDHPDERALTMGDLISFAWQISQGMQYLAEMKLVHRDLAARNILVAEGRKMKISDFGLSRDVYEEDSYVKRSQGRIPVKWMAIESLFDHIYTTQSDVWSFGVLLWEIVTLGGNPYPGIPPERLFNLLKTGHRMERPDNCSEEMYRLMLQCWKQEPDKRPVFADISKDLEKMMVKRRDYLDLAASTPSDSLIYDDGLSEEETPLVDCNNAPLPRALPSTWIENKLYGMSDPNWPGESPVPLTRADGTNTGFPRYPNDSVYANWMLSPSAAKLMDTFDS

pIC50 (EGFR) | pIC50 (BLK) | pIC50 (Tec) | pIC50 (RET) | pIC50 (Lck) | pIC50 (Lyn) | pIC50 (Btk) | pIC50 (BMX) | pIC50 (CSK) | pIC50 (C-src) | SMILES
> 7.00 | > 7.00 | > 7.00 | < 6.00 | 6.00 to 7.00 | > 7.00 | > 7.00 | > 7.00 | < 6.00 | > 7.00 | COc1cc(-c2nn(-c3cccc(N(C)C(=O)/C=C/CN(C)C4CCC4)c3)c3ncnc(N)c23)ccc1C [Example 23, (E)-N-(3-(4-amino-3-(3-methoxy-4-methylphenyl)-1H-pyrazolo[3,4-d]pyrimidin-1-yl)phenyl)-4-(cyclobutyl(methyl)amino)-N-methylbut-2-enamide]
> 7.00 | > 7.00 | > 7.00 | 6.00 to 7.00 | > 7.00 | 6.00 to 7.00 | > 7.00 | > 7.00 | 6.00 to 7.00 | > 7.00 | CN(C)C/C=C/C(=O)Nc1cccc(-n2nc(-c3ccc(Cl)cc3)c3c(N)ncnc32)c1 [Example 27, (E)-N-(3-(4-amino-3-(4-chlorophenyl)-1H-pyrazolo[3,4-d]pyrimidin-1-yl)phenyl)-4-(dimethylamino)but-2-enamide]
